Measured values: patent US5807850A, “Therapeutic agent for osteoporosis and triazepine compound” (Japan Tobacco, Inc., priority 1994, dated 1998)

How the values were obtained:
[1] = tested on: lumbar spine (L4-5) vertebral body of ovariectomized rats; test: Suppression of bone mass decrease in ovariectomized rats (osteoporosis model rats); format: in vivo, Female SD rats; settings: 12 weeks, Control 46.1 ± 0.5, Normal control 56.3 ± 1.4
Description: Experimental Example 2 suppression of bone mass decrease
The suppressive effect of the compound of the present invention on the bone mass decrease was tested using the ovariectomized rats (osteoporosis model rats).
Female SD rats (13 weeks of age) were subjected to bilateral ovariectomies under anesthesia with Nembutal (50 mg/kg/ml, i.p.; Dai-Nippon Pharmaceutical). At the same time, a sham control group that was subjected to sham surgery without removing ovaries was prepared. The next day of the operation, the rats were grouped in such a manner that the bone mineral density (hereinafter abbreviated as BMD) of each group would reach an average. The BMD was determined by their bone mineral density of lumbar spine (L 4-5) that was measured with a DXA bone densitometer (DCS-600 R, Aloka) under ether anesthesia. The test compounds were suspended in 0.5% hydroxypropylmethylcellulose (hereinafter abbreviated as HPMC, Shin-Etsu Chemical Industries, Ltd.) and they were administered orally at the doses of 0.3, 1.0 and 3.0 mg/kg (5 ml/kg:) for 12 weeks daily from the day following the operation. As a positive control, 17 β-estradiol (Sigma) was dissolved in 5% benzyl alcohol and 95% corn oil, and administered subcutaneously at a dose of 50 μg/kg (1 ml/kg) twice a week for 12 weeks. 0.5% HPMC was administered orally to the normal control and the control for 12 weeks at 5 ml/kg. The next day of the final administration, the rats were exsanguinated and killed under ether anesthesia and the lumbar spine (L4-5) was recovered. The soft tissues and processes were removed from the obtained lumbar spine and BMD of the vertebral body (L4-5) was determined with DCS-600 R (Aloka).
The results are shown by mean±S.E. of the respective groups and the statistical evaluations of the effect of respective groups were made by one-way analysis of variance. The significance was ascribed at less than 5%.

calvaria = test: Inhibition of bone resorption (45Ca release from calvaria stimulated with hPTH (1-34), method of Raisz); format: cell-based, new born ICR mouse; settings: Mus musculus, 72 h; 45Ca release, 50 nM hPTH (1-34), 3 days incubation; test concentrations 0.04, 0.2 and 1 μM; mean of 4 pairs; read-out: IC50 (inhibition of bone resorption)
Description: The determination of the inhibitory action on the bone resorption was basically in accordance with the method of Raisz [J. Clin. Invest. vol.
A new born ICR mouse (one or two days old) was intraperitoneally administered with 1.5μ Ci ^45 Ca (isotope of calcium as CaCl2 solution) and calvaria was aseptically removed the next day. The calvaria was split into two along the central suture line, and one of them was used as a control and the other was used as a test compound. The calvaria was preincubated at 37° C. for 2 days in BGJb medium [0.5 ml, Fitton-Jackson modification, GIBCO Laboratories, USA, containing bovine serum albumin 1 mg/ml] added with a test compound to the concentrations of 0.04 μM, 0.2 μM and 1 μM and then in the above-mentioned medium containing 50 nM hPTH (1-34) for further 3 days. After the incubation, the ^45 Ca radioactivity in the medium and the bone was determined, and the proportion (%) of ^45 Ca released from the bone into the medium was calculated by the following formula.
Using the bone obtained from the same mouse and treated in the same manner without adding a test compound, as a control, the proportion (%) relative to the control group was determined according to the following formula.

[2] = 0.3 mg/kg p.o., daily, n=9, mean ± S.E.
[3] = 1 mg/kg p.o., daily, n=8, mean ± S.E., *p < 0.05
[4] = 3 mg/kg p.o., daily, n=9, mean ± S.E., **p < 0.01

Row | Compound | IC50 (calvaria) [nM] | other results
1 | C[C@]12CC[C@@H]3c4ccc(O)cc4CC[C@H]3[C@@H]1CC[C@@H]2O [17 β-estradiol, reference compound] |  | BMD of body of vertebra ([1]; positive control, 0.05 mg/kg s.c., twice a week, n=8, mean ± S.E.): 53.5 ± 0.7 mg/cm^2
2 | Cc1nnc2n1-c1ccccc1C(c1ccc(Cl)cc1)=NN2Cc1cccc(F)c1 [Example 58, 6-(4-Chlorophenyl)-4-(3-fluorobenzyl)-1-methyl-4H-2,3,4,5,10b-pentaazabenz[e]azulene] | 430 | 
3 | Cc1nnc2n1-c1ccccc1C(c1ccc(Cl)cc1)=NN2Cc1ccc([N+](=O)[O-])cc1 [Example 122, 6-(4-Chlorophenyl)-1-methyl-4-(4-nitrobenzyl)-4H-2,3,4,5,10b-pentaazabenz[e]azulene] | 720 | 
4 | Cc1sc2c(c1C)C(c1ccc(Cl)cc1)=NN(Cc1cccnc1)c1nnc(C)n1-2 [Example 139, 4-(4-Chlorophenyl)-2,3,9-trimethyl-6-(pyridin-3-ylmethyl)-6H-5,6,7,8,9a-pentaazathien[2,3-e]azulene] | 18 | 
5 | Cc1nnc2n1-c1ccccc1C(c1ccc(Cl)cc1)=NN2Cc1ccc(F)c(F)c1 [Example 63, 6-(4-Chlorophenyl)-4-(3,4-difluorobenzyl)-1-methyl-4H-2,3,4,5,10b-pentaazabenz[e]azulene] | 740 | 
6 | Cc1nnc2n1-c1ccccc1C(c1ccc(Cl)cc1)=NN2Cc1ccc(S(C)(=O)=O)cc1 [Example 121, 6-(4-Chlorophenyl)-1-methyl-4-(4-methylsulfonylbenzyl)-4H-2,3,4,5,10b-pentaazabenz[e]azulene] | 140 | 
7 | COc1ccc(CN2N=C(c3ccc(Cl)cc3)c3ccccc3-n3c(C)nnc32)cc1OC [Example 41, 6-(4-Chlorophenyl)-4-(3,4-dimethoxybenzyl)-1-methyl-4H-2,3,4,5,10b-pentaazabenz[e]azulene] | 800 | 
8 | Cc1nnc2n1-c1ccccc1C(c1ccc(Cl)cc1)=NN2CC1CC1 [Example 106, 6-(4-Chlorophenyl)-4-cyclopropylmethyl-1-methyl-4H-2,3,4,5,10b-pentaazabenz[e]azulene] | 830 | 
9 | Cc1nnc2n1-c1ccccc1C(c1ccc(Cl)cc1)=NN2Cc1ccc2c(c1)OCO2 [Example 81, 6-(4-Chlorophenyl)-1-methyl-4-(3,4-methylenedioxybenzyl)-4H-2,3,4,5,10b-pentaazabenz[e]azulene] | 590 | 
10 | Cc1ccc2c(c1)-n1c(C)nnc1N(Cc1ccncc1)N=C2c1ccccc1 [Example 131, 1,9-Dimethyl-6-phenyl-4-(pyridin-4-ylmethyl)-4H-2,3,4,5,10b-pentaazabenz[e]azulene] | 990 | BMD of body of vertebra [1, 2]: 46.5 ± 0.8 mg/cm^2; BMD of body of vertebra [1, 3]: 48.5 ± 0.5 mg/cm^2; BMD of body of vertebra [1, 4]: 51.3 ± 0.9 mg/cm^2
11 | Cc1nnc2n1-c1ccccc1C(c1ccc(Cl)cc1)=NN2Cc1cccnc1 [Example 54, 6-(4-Chlorophenyl)-1-methyl-4-(pyridin-3-ylmethyl)-4H-2,3,4,5,10b-pentaazabenz[e]azulene] | 540 | BMD of body of vertebra [1, 2]: 46.2 ± 0.4 mg/cm^2; BMD of body of vertebra [1, 3]: 47.3 ± 0.6 mg/cm^2; BMD of body of vertebra [1, 4]: 51.6 ± 0.4 mg/cm^2

More lines, main results first:

Row | IC50 (calvaria) [nM] | Compound | other results
12 | 50 | Cc1sc2c(c1C)C(c1ccc(Cl)cc1)=NN(Cc1ccncc1)c1nnc(C)n1-2 [Example 140, 4-(4-Chlorophenyl)-2,3,9-trimethyl-6-(pyridin-4-ylmethyl)-6H-5,6,7,8,9a-pentaazathien[2,3-e]azulene] | 
13 | 450 | CCc1cc2c(s1)-n1c(C)nnc1N(Cc1ccncc1)N=C2c1ccc(Cl)cc1 [Example 142, 4-(4-Chlorophenyl)-2-ethyl-9-methyl-6-(pyridin-4-ylmethyl)-6H-5,6,7,8,9a-pentaazathien[2,3-e]azulene] | 
14 | 260 | CC(=O)Nc1ccc(CN2N=C(c3ccc(Cl)cc3)c3ccccc3-n3c(C)nnc32)cc1 [Example 189, 4-(4-Acetylaminobenzyl)-6-(4-chlorophenyl)-1-methyl-4H-2,3,4,5,10b-pentaazabenz[e]azulene] | 
15 | 680 | CCc1cc2c(s1)-n1c(C)nnc1N(Cc1cccnc1)N=C2c1ccc(Cl)cc1 [Example 141, 4-(4-Chlorophenyl)-2-ethyl-9-methyl-6-(pyridin-3-ylmethyl)-6H-5,6,7,8,9a-pentaazathien[2,3-e]azulene] | 
16 | 810 | CCc1cc2c(s1)-n1c(C)nnc1N(Cc1cccnc1)N=C2c1ccccc1 [Example 147, 2-Ethyl-9-methyl-4-phenyl-6-(pyridin-3-ylmethyl)-6H-5,6,7,8,9a-pentaazathien[2,3-e]azulene] | 
17 | 790 | CCOc1ccc(CN2N=C(c3ccc(Cl)cc3)c3ccccc3-n3c(C)nnc32)cc1 [Example 186, 6-(4-Chlorophenyl)-4-(4-ethoxybenzyl)-1-methyl-4H-2,3,4,5,10b-pentaazabenz[e]azulene] | 
